Data: ChEMBL document CHEMBL1139075, “Synthesis and antitubercular activity of quaternized promazine and promethazine derivatives” (Bioorg Med Chem Lett, 2007)

Columns and labels:
[1] = tested on: Mycobacterium tuberculosis; assay: Antitubercular activity against non-replicating Mycobacterium tuberculosis H37Rv by LORA; type: functional
[2] = tested on: Mycobacterium tuberculosis; assay: Antitubercular activity against actively growing Mycobacterium tuberculosis H37Rv by microplate alamar blue assay; type: functional
[3] = tested on: Vero; assay: Cytotoxicity against Vero cells after 3 days; type: cell-based; details: Chlorocebus sabaeus, 72 h

C[N+](C)(CCCN1c2ccccc2Sc2ccc(Cl)cc21)Cc1ccc([N+](=O)[O-])cc1
MIC [1]: 27.5 µM | MIC [2]: 12.3 µM

CC(CN1c2ccccc2Sc2ccccc21)[N+](C)(C)Cc1ccc([N+](=O)[O-])cc1 (stereo unspecified)
MIC [1]: > 128 µM | MIC [2]: 20.7 µM

C[N+](C)(CCCN1c2ccccc2Sc2ccccc21)Cc1ccc(Cl)cc1
IC50 [3]: > 64 µM | MIC [1]: 15.4 µM | MIC [2]: 9.31 µM

C[N+](C)(CCCN1c2ccccc2Sc2ccccc21)Cc1ccccc1Cl
MIC [1]: 24.6 µM | MIC [2]: 14.3 µM

C[N+](C)(CCCN1c2ccccc2Sc2ccccc21)Cc1ccc(F)cc1
MIC [1]: 32.9 µM | MIC [2]: 14.6 µM

COc1ccc(C[N+](C)(C)C(C)CN2c3ccccc3Sc3ccccc32)cc1 (stereo unspecified)
MIC [1]: 105 µM | MIC [2]: 14.4 µM

Cc1ccc(C[N+](C)(C)CCCN2c3ccccc3Sc3ccccc32)cc1
IC50 [3]: > 128 µM | MIC [1]: 15 µM | MIC [2]: 9.9 µM

C[N+](C)(CCCN1c2ccccc2Sc2ccc(Cl)cc21)Cc1ccccc1
IC50 [3]: > 128 µM | MIC [1]: 11.1 µM | MIC [2]: 7.33 µM

C[N+](C)(CCCN1c2ccccc2Sc2ccc(C(F)(F)F)cc21)Cc1ccccc1Cl
IC50 [3]: > 128 µM | MIC [1]: 7.5 µM | MIC [2]: 7.3 µM

C[N+](C)(CCCN1c2ccccc2Sc2ccc(C(F)(F)F)cc21)Cc1ccc(F)cc1
IC50 [3]: > 128 µM | MIC [1]: 10 µM | MIC [2]: 6.4 µM

C[N+](C)(CCCN1c2ccccc2Sc2ccc(Cl)cc21)Cc1cccc(Cl)c1
IC50 [3]: > 128 µM | MIC [1]: 6.7 µM | MIC [2]: 4.5 µM

C[N+](C)(CCCN1c2ccccc2Sc2ccc(Cl)cc21)Cc1ccc(F)cc1
IC50 [3]: > 128 µM | MIC [1]: 13.7 µM | MIC [2]: 7.6 µM

Cc1ccc(C[N+](C)(C)CCCN2c3ccccc3Sc3ccc(C(F)(F)F)cc32)cc1
IC50 [3]: > 128 µM | MIC [1]: 6.9 µM | MIC [2]: 6.8 µM

CC(CN1c2ccccc2Sc2ccccc21)[N+](C)(C)Cc1ccccc1 (stereo unspecified)
MIC [1]: 99.7 µM | MIC [2]: 31.6 µM

C[N+](C)(CCCN1c2ccccc2Sc2ccc(C(F)(F)F)cc21)Cc1ccc(Cl)cc1
IC50 [3]: > 128 µM | MIC [1]: 6.1 µM | MIC [2]: 3.81 µM

C[N+](C)(CCCN1c2ccccc2Sc2ccc(Cl)cc21)Cc1ccc(Cl)cc1
IC50 [3]: > 128 µM | MIC [1]: 6.7 µM | MIC [2]: 6.06 µM

C[N+](C)(CCCN1c2ccccc2Sc2ccc(Cl)cc21)Cc1ccccc1Cl
IC50 [3]: > 128 µM | MIC [1]: 7.6 µM | MIC [2]: 5.6 µM

Cc1ccc(C[N+](C)(C)CCCN2c3ccccc3Sc3ccc(Cl)cc32)cc1
IC50 [3]: > 128 µM | MIC [1]: 7.5 µM | MIC [2]: 4.7 µM

C[N+](C)(CCCN1c2ccccc2Sc2ccccc21)Cc1cccc(Cl)c1
IC50 [3]: > 128 µM | MIC [1]: 13 µM | MIC [2]: 7.5 µM

Cc1ccc(C[N+](C)(C)C(C)CN2c3ccccc3Sc3ccccc32)cc1 (stereo unspecified)
MIC [1]: 34.7 µM | MIC [2]: 12.1 µM

C[N+](C)(CCCN1c2ccccc2Sc2ccc(C(F)(F)F)cc21)Cc1cccc(Cl)c1
IC50 [3]: > 128 µM | MIC [1]: 5.8 µM | MIC [2]: 3.8 µM

COc1ccc(C[N+](C)(C)CCCN2c3ccccc3Sc3ccc(Cl)cc32)cc1
IC50 [3]: > 128 µM | MIC [1]: 11.9 µM | MIC [2]: 8.5 µM

C=CC[N+](C)(C)CCCN1c2ccccc2Sc2ccc(Cl)cc21
MIC [1]: 106 µM | MIC [2]: 30.6 µM
